Measurements: ChEMBL document CHEMBL3392967, “Phosphatidylinositol 3-Kinase (PI3K) and phosphatidylinositol 3-kinase-related kinase (PIKK) inhibitors: importance of the morpholine ring” (J Med Chem, 2015)
Where “and” joins values, the source holds several entries; their conditions need not be identical. Identical values can stand only once. One block for each compound: values may come before it.

Assays:
[1] = target: T1, DNA-dependent protein kinase catalytic subunit (Homo sapiens, UniProt P78527); assay: Inhibition of DNA-PK (unknown origin)
T1 sequence (P78527 whole entry, canonical isoform): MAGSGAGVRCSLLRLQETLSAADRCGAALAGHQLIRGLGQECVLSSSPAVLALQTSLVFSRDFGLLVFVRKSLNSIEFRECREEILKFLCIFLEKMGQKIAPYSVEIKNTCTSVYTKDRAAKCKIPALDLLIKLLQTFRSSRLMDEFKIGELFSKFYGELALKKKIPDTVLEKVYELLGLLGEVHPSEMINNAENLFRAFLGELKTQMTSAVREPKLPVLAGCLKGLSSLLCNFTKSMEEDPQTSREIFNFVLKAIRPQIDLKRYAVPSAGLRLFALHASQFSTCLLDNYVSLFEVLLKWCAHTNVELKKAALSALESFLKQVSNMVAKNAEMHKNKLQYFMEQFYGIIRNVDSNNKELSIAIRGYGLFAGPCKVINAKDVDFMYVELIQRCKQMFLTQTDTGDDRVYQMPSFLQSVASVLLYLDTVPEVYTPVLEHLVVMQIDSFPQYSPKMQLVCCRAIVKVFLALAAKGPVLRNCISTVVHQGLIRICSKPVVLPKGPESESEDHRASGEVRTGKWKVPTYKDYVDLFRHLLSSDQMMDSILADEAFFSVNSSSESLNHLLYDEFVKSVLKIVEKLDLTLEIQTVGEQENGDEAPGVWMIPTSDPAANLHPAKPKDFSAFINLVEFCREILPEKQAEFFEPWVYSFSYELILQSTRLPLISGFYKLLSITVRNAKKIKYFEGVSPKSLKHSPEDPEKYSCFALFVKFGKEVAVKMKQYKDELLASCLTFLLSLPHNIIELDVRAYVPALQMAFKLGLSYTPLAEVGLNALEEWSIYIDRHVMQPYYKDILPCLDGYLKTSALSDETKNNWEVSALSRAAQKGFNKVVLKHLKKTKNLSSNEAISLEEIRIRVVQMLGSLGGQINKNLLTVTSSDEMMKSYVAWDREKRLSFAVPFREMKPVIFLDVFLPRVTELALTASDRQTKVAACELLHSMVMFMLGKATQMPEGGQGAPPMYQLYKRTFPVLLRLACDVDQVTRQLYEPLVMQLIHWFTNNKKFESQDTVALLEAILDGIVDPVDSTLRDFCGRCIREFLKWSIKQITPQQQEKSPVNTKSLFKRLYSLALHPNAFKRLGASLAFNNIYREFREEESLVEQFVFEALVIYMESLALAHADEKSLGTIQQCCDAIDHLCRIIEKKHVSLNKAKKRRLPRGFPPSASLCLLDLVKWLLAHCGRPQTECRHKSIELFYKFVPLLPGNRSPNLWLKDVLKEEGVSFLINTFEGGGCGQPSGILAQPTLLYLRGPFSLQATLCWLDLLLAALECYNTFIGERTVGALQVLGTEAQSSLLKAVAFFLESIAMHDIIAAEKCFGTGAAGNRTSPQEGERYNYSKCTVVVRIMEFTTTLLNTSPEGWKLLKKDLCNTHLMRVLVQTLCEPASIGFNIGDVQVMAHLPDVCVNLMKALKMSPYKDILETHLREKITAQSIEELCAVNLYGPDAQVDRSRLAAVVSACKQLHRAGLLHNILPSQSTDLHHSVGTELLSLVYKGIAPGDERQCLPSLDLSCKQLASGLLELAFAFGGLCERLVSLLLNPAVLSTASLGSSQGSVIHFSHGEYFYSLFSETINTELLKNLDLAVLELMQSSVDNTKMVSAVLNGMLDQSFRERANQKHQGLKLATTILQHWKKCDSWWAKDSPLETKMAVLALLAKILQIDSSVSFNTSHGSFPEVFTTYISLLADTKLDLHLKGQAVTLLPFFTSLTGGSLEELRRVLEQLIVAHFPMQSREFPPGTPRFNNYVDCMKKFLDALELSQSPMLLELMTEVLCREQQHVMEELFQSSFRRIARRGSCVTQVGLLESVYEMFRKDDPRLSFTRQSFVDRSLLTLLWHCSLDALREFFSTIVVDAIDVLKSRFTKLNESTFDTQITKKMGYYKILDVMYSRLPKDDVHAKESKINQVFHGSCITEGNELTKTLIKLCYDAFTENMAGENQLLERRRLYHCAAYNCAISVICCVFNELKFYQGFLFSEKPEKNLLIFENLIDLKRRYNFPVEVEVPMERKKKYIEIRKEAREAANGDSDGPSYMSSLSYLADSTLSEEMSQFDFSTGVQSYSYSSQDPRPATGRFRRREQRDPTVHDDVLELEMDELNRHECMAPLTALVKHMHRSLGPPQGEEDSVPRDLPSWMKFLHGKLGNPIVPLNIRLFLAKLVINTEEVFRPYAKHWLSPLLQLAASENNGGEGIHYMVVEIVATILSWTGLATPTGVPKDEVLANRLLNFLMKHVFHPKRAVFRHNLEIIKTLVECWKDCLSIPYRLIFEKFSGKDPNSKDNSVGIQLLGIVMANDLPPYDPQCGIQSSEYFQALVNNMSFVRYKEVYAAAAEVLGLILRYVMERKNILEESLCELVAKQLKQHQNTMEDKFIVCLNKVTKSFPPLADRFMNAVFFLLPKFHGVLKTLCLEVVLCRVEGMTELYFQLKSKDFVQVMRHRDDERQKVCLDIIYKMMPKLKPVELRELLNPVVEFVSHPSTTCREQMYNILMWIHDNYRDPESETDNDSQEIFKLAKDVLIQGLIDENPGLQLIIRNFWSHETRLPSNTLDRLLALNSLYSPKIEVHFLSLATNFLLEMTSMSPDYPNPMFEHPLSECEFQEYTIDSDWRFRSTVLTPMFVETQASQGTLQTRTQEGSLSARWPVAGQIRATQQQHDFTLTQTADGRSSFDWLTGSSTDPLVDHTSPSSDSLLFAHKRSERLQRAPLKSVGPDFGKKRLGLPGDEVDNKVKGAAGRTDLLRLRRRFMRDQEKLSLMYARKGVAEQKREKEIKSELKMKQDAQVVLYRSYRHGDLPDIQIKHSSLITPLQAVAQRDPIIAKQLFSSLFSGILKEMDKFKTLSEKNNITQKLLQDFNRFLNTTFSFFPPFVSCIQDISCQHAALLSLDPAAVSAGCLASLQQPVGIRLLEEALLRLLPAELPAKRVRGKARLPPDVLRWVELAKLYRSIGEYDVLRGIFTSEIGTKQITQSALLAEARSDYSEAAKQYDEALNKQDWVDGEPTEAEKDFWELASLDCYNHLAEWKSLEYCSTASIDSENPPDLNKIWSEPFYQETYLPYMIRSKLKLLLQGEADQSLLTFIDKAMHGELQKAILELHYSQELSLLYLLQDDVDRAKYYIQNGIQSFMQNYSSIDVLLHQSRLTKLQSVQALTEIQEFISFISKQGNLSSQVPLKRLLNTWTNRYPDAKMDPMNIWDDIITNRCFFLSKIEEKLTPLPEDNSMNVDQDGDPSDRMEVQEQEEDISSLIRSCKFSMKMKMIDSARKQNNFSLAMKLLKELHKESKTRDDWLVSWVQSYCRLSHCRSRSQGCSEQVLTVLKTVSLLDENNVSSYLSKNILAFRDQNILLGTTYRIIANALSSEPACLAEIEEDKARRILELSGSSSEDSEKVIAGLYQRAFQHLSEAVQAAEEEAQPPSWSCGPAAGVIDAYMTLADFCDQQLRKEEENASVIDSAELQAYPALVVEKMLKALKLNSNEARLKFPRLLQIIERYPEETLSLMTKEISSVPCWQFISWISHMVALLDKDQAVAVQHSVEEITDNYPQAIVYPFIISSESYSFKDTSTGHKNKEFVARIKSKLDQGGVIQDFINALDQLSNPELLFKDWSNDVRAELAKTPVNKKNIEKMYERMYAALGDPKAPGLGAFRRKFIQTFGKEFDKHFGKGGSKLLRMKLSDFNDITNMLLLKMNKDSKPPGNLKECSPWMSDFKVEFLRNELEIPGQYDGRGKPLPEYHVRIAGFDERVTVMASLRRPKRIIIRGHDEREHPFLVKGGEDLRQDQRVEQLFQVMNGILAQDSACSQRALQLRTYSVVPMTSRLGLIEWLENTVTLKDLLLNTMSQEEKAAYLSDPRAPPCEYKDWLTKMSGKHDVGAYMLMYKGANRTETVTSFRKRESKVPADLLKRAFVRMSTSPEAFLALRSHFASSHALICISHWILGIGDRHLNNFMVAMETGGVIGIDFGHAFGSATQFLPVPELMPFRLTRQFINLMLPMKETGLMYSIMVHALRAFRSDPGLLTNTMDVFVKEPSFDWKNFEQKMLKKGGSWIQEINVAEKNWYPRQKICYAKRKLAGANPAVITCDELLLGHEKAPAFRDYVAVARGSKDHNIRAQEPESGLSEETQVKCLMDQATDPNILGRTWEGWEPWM

[2] = target: Phosphatidylinositol 4,5-bisphosphate 3-kinase catalytic subunit alpha isoform (Homo sapiens, UniProt P42336)
Chain of Phosphatidylinositol 4,5-bisphosphate 3-kinase catalytic subunit alpha isoform (P42336 whole entry, canonical isoform): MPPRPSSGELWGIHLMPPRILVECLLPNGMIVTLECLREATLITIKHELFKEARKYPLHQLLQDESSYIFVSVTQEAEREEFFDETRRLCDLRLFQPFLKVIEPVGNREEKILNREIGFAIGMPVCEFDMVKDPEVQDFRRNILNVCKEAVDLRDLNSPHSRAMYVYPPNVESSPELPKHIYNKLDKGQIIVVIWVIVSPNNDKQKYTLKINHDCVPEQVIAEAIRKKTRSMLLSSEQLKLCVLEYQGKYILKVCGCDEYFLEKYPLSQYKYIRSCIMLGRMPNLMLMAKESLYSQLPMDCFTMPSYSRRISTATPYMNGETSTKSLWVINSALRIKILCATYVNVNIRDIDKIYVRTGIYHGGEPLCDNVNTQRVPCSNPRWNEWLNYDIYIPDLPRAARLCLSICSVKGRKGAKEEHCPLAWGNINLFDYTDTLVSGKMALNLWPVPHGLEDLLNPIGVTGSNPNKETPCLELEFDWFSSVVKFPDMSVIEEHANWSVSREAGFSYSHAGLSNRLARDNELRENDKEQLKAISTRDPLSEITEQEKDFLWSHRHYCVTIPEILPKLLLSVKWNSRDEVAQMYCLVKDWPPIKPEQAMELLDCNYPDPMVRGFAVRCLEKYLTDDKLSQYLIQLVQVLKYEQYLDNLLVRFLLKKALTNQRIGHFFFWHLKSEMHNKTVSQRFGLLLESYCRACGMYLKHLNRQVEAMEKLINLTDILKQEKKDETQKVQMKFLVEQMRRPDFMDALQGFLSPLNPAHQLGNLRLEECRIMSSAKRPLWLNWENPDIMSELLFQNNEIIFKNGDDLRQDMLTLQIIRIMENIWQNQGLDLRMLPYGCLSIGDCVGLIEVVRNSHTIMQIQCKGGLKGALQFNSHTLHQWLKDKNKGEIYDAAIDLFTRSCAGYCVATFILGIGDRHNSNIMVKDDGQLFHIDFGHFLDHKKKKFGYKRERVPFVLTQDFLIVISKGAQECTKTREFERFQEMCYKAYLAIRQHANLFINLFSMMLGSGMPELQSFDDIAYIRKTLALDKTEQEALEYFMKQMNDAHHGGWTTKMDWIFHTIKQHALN

[3] = target: T1, DNA-dependent protein kinase catalytic subunit; assay: Inhibition of DNA-PK purified from HeLa nuclear extracts assessed as EPPLSQEAFADLWKKR peptide substrate phosphorylation
[4] = target: Serine/threonine-protein kinase mTOR (Homo sapiens, UniProt P42345); assay: Inhibition of mTOR (unknown origin)
[5] = Oral bioavailability in mouse; format: ADME, organism-based; settings: in vivo
MDA-MB-361 = assay: cells; settings: Homo sapiens
[6] = Half life in mouse plasma at 25 mg/kg single dose; format: ADME, organism-based; design: dose 25 mg/kg
[7] = target: Serine/threonine-protein kinase mTOR (Rattus norvegicus, UniProt P42346); assay: Inhibition of rat derived mTOR using [gamma32P]ATP
[8] = target: T2, Phosphatidylinositol 4,5-bisphosphate 3-kinase catalytic subunit delta isoform (Homo sapiens, UniProt O00329)
T2 sequence (O00329 whole entry): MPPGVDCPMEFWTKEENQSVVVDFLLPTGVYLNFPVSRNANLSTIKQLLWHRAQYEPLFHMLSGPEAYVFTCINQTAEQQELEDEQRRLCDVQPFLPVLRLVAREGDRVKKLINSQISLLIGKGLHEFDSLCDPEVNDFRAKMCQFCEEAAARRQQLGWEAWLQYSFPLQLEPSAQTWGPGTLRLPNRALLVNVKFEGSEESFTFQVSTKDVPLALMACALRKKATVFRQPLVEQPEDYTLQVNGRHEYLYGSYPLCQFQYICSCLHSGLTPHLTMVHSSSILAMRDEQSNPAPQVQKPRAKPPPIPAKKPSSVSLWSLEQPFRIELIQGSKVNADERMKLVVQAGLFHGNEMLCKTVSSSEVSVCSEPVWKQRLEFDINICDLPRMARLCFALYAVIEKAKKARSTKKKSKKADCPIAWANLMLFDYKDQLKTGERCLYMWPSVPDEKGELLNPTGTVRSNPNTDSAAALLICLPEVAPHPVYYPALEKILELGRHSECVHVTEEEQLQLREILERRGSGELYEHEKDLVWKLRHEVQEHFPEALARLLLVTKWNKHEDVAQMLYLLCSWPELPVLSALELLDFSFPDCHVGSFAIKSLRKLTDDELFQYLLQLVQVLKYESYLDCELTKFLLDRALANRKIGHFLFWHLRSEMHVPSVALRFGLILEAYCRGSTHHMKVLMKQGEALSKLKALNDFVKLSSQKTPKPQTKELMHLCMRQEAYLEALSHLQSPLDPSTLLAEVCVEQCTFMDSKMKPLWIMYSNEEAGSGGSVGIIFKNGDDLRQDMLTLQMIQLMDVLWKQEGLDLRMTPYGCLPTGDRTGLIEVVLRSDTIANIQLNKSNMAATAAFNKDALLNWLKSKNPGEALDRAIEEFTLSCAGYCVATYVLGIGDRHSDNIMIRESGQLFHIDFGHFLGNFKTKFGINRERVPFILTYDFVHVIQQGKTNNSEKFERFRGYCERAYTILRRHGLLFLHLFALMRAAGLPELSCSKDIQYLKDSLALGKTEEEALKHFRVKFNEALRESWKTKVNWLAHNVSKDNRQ

[9] = Inhibition of rapamycin-insensitive mTORC2 (unknown origin); design: species or system Homo sapiens
[10] = Oral bioavailability in BALB/C mouse; format: ADME, organism-based; settings: in vivo
[11] = Half life in BALB/C mouse; format: ADME, organism-based; settings: in vivo

Compound: COc1ccc2oc(=O)cc(N3CCOCC3)c2c1
IC50 [1]: 1200 nM

Compound: O=c1cc(N2CCOCC2)oc2c(-c3cccc4c3oc3ccccc34)cccc12
IC50 [1]: 41 nM

Compound: O=c1cc(-c2ccccc2)oc2cc(N3CCOCC3)cc(O)c12
IC50 [3]: 34 nM

Compound: Cc1ccc2c(=O)cc(N3CCOCC3)oc2c1-c1cccc2c1sc1ccccc12
IC50 [1]: 5 nM and 14 nM

Compound: O=c1cc(N2CCOCC2)oc2c(-c3ccccc3)cccc12 [LY-294002]
IC50 [7]: 2500 nM | IC50 [8]: 1600 nM

Compound: Cc1nc2c(-c3cnc(N)nc3)nc(N3CCOCC3)nc2n1C(C)C [VS-5584]
bioavailability [10]: 100% | half-life [11]: 600 min

Now from value to compound:

IC50 [2]: > 1000 nM
Compound: Cc1cc(C(C)Nc2ccccc2)c2nc(N3CCOCC3)cc(=O)n2c1 (stereo not drawn)

IC50 [1]: 13 nM
Compound: O=c1cc(N2CCOCC2)nc2c(-c3cccc4c3sc3ccccc34)cccn12

IC50 [3]: 35 nM
Compound: O=C(c1ccc(O)cc1)c1ccc(N2CCOCC2)cc1O

IC50 [2]: 1300 nM
Compound: Oc1ccc2nc(-c3ccccc3)nc(N3CCOCC3)c2c1

IC50 [4]: 23 nM
Compound: CNC(=O)Nc1ccc(-c2nc(N3CCOCC3)nc3c2cnn3C2CCOCC2)cc1

IC50 [4]: 3 nM | bioavailability [5]: 88.6% | IC50 (MDA-MB-361): 10 nM
Compound: CCn1nnc2c(N3CCOCC3)nc(-c3ccc(NC(=O)Nc4ccc(C(=O)N5CCN(C)CC5)cc4)cc3)nc21

half-life [6]: 210 min
Compound: CN(C)C1CCN(C(=O)c2ccc(NC(=O)Nc3ccc(-c4nc(N5CCOCC5)nc(N5CCOCC5)n4)cc3)cc2)CC1 [GEDATOLISIB]

IC50 [9]: 83 nM
Compound: Oc1cccc(-c2nc(N3CCOCC3)c3oc4ncccc4c3n2)c1 [PI-103]
